{"source": "PubChem BioAssay (NCI)", "assay_in_all_cases": "DTP human tumour cell line panel, 384-well format", "key": {"786-0 renal": {"test_system": "786-0 renal"}, "A498 renal": {"test_system": "A498 renal"}, "A549 NSCLC": {"test_system": "A549 NSCLC"}, "BT-549 breast": {"test_system": "BT-549 breast"}, "CAKI-1 renal": {"test_system": "CAKI-1 renal"}, "CCRF-CEM leukemia": {"test_system": "CCRF-CEM leukemia"}, "COLO 205 colon": {"test_system": "COLO 205 colon"}, "DU-145 prostate": {"test_system": "DU-145 prostate"}, "EKVX NSCLC": {"test_system": "EKVX NSCLC"}, "HCC-2998 colon": {"test_system": "HCC-2998 colon"}, "HCT-15 colon": {"test_system": "HCT-15 colon"}, "HOP-92 NSCLC": {"test_system": "HOP-92 NSCLC"}, "HS 578T breast": {"test_system": "HS 578T breast"}, "IGROV1 ovarian": {"test_system": "IGROV1 ovarian"}, "K-562 leukemia": {"test_system": "K-562 leukemia"}, "KM12 colon": {"test_system": "KM12 colon"}, "LOX IMVI melanoma": {"test_system": "LOX IMVI melanoma"}, "MCF7 breast": {"test_system": "MCF7 breast"}, "MDA-MB-468 breast": {"test_system": "MDA-MB-468 breast"}, "MOLT-4 leukemia": {"test_system": "MOLT-4 leukemia"}, "NCI-H23 lung": {"test_system": "NCI-H23 lung"}, "NCI-H460 NSCLC": {"test_system": "NCI-H460 NSCLC"}, "NCI-H522 lung": {"test_system": "NCI-H522 lung"}, "NCI/ADR-RES ovarian": {"test_system": "NCI/ADR-RES ovarian"}, "OVCAR-4 ovarian": {"test_system": "OVCAR-4 ovarian"}, "OVCAR-5 ovarian": {"test_system": "OVCAR-5 ovarian"}, "OVCAR-8 ovarian": {"test_system": "OVCAR-8 ovarian"}, "PC-3 prostate": {"test_system": "PC-3 prostate"}, "RPMI-8226 leukemia": {"test_system": "RPMI-8226 leukemia"}, "SF-268 CNS": {"test_system": "SF-268 CNS"}, "SF-295 CNS": {"test_system": "SF-295 CNS"}, "SF-539 CNS": {"test_system": "SF-539 CNS"}, "SK-MEL-2 melanoma": {"test_system": "SK-MEL-2 melanoma"}, "SK-MEL-28 melanoma": {"test_system": "SK-MEL-28 melanoma"}, "SK-MEL-5 melanoma": {"test_system": "SK-MEL-5 melanoma"}, "SK-OV-3 ovarian": {"test_system": "SK-OV-3 ovarian"}, "SN12C renal": {"test_system": "SN12C renal"}, "SNB-19 CNS": {"test_system": "SNB-19 CNS"}, "SNB-75 CNS": {"test_system": "SNB-75 CNS"}, "SR leukemia": {"test_system": "SR leukemia"}, "SW-620 colon": {"test_system": "SW-620 colon"}, "T-47D breast": {"test_system": "T-47D breast"}, "TK-10 renal": {"test_system": "TK-10 renal"}, "U251 glioblastoma": {"test_system": "U251 glioblastoma"}, "UACC-257 melanoma": {"test_system": "UACC-257 melanoma"}, "UACC-62 melanoma": {"test_system": "UACC-62 melanoma"}, "UO-31 renal": {"test_system": "UO-31 renal"}}, "note": "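GI50 = concentration required for 50% inhibition of growth. The concentration for full growth arrest is given as TGI.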", "data": [{"smiles": "COC(=O)c1ccc([C@H]2c3[nH]c4ccccc4c3C[C@H](C(=O)OC)N2C(=O)CCl)cc1", "values": [{"measurement": "GI50", "setting": "786-0 renal", "result": 10.4, "unit": "nM"}, {"measurement": "TGI", "setting": "786-0 renal", "result": 25, "unit": "nM"}, {"measurement": "GI50", "setting": "A498 renal", "result": 20.5, "unit": "nM"}, {"measurement": "TGI", "setting": "A498 renal", "result": 43.8, "unit": "nM"}, {"measurement": "GI50", "setting": "A549 NSCLC", "result": 119, "unit": "nM"}, {"measurement": "TGI", "setting": "A549 NSCLC", "result": 339, "unit": "nM"}, {"measurement": "GI50", "setting": "BT-549 breast", "result": 120, "unit": "nM"}, {"measurement": "TGI", "setting": "BT-549 breast", "result": 246, "unit": "nM"}, {"measurement": "GI50", "setting": "CAKI-1 renal", "result": "< 10", "unit": "nM"}, {"measurement": "TGI", "setting": "CAKI-1 renal", "result": "< 10", "unit": "nM"}, {"measurement": "GI50", "setting": "CCRF-CEM leukemia", "result": "< 10", "unit": "nM"}, {"measurement": "TGI", "setting": "CCRF-CEM leukemia", "result": 15, "unit": "nM"}, {"measurement": "GI50", "setting": "COLO 205 colon", "result": 238, "unit": "nM"}, {"measurement": "TGI", "setting": "COLO 205 colon", "result": 1150, "unit": "nM"}, {"measurement": "GI50", "setting": "DU-145 prostate", "result": 336, "unit": "nM"}, {"measurement": "TGI", "setting": "DU-145 prostate", "result": 1640, "unit": "nM"}, {"measurement": "GI50", "setting": "EKVX NSCLC", "result": "< 10", "unit": "nM"}, {"measurement": "TGI", "setting": "EKVX NSCLC", "result": 22.4, "unit": "nM"}, {"measurement": "GI50", "setting": "HCC-2998 colon", "result": 30.3, "unit": "nM"}, {"measurement": "TGI", "setting": "HCC-2998 colon", "result": 177, "unit": "nM"}, {"measurement": "GI50", "setting": "HCT-15 colon", "result": 157, "unit": "nM"}, {"measurement": "TGI", "setting": "HCT-15 colon", "result": 913, "unit": "nM"}, {"measurement": "GI50", "setting": "HOP-92 NSCLC", "result": "< 10", "unit": "nM"}, {"measurement": "TGI", "setting": "HOP-92 NSCLC", "result": "< 10", "unit": "nM"}, {"measurement": "GI50", "setting": "HS 578T breast", "result": 131, "unit": "nM"}, {"measurement": "TGI", "setting": "HS 578T breast", "result": 311, "unit": "nM"}, {"measurement": "GI50", "setting": "IGROV1 ovarian", "result": 14.2, "unit": "nM"}, {"measurement": "TGI", "setting": "IGROV1 ovarian", "result": 27.5, "unit": "nM"}, {"measurement": "GI50", "setting": "K-562 leukemia", "result": 46.2, "unit": "nM"}, {"measurement": "TGI", "setting": "K-562 leukemia", "result": 382, "unit": "nM"}, {"measurement": "GI50", "setting": "KM12 colon", "result": 18.3, "unit": "nM"}, {"measurement": "TGI", "setting": "KM12 colon", "result": 37.8, "unit": "nM"}, {"measurement": "GI50", "setting": "LOX IMVI melanoma", "result": "< 10", "unit": "nM"}, {"measurement": "TGI", "setting": "LOX IMVI melanoma", "result": "< 10", "unit": "nM"}, {"measurement": "GI50", "setting": "MCF7 breast", "result": 553, "unit": "nM"}, {"measurement": "TGI", "setting": "MCF7 breast", "result": 1830, "unit": "nM"}, {"measurement": "GI50", "setting": "MDA-MB-468 breast", "result": "< 10", "unit": "nM"}, {"measurement": "TGI", "setting": "MDA-MB-468 breast", "result": 19.5, "unit": "nM"}, {"measurement": "GI50", "setting": "MOLT-4 leukemia", "result": 15.5, "unit": "nM"}, {"measurement": "TGI", "setting": "MOLT-4 leukemia", "result": 29.4, "unit": "nM"}, {"measurement": "GI50", "setting": "NCI-H23 lung", "result": "< 10", "unit": "nM"}, {"measurement": "TGI", "setting": "NCI-H23 lung", "result": 12, "unit": "nM"}, {"measurement": "GI50", "setting": "NCI-H460 NSCLC", "result": 574, "unit": "nM"}, {"measurement": "TGI", "setting": "NCI-H460 NSCLC", "result": 1940, "unit": "nM"}, {"measurement": "GI50", "setting": "NCI-H522 lung", "result": "< 10", "unit": "nM"}, {"measurement": "TGI", "setting": "NCI-H522 lung", "result": "< 10", "unit": "nM"}, {"measurement": "GI50", "setting": "NCI/ADR-RES ovarian", "result": 25.1, "unit": "nM"}, {"measurement": "TGI", "setting": "NCI/ADR-RES ovarian", "result": 102, "unit": "nM"}, {"measurement": "GI50", "setting": "OVCAR-4 ovarian", "result": "< 10", "unit": "nM"}, {"measurement": "TGI", "setting": "OVCAR-4 ovarian", "result": "< 10", "unit": "nM"}, {"measurement": "GI50", "setting": "OVCAR-5 ovarian", "result": 289, "unit": "nM"}, {"measurement": "TGI", "setting": "OVCAR-5 ovarian", "result": 1580, "unit": "nM"}, {"measurement": "GI50", "setting": "OVCAR-8 ovarian", "result": 66.5, "unit": "nM"}, {"measurement": "TGI", "setting": "OVCAR-8 ovarian", "result": 248, "unit": "nM"}, {"measurement": "GI50", "setting": "PC-3 prostate", "result": 34.4, "unit": "nM"}, {"measurement": "TGI", "setting": "PC-3 prostate", "result": 140, "unit": "nM"}, {"measurement": "GI50", "setting": "RPMI-8226 leukemia", "result": 14.2, "unit": "nM"}, {"measurement": "TGI", "setting": "RPMI-8226 leukemia", "result": 28.4, "unit": "nM"}, {"measurement": "GI50", "setting": "SF-268 CNS", "result": 19.5, "unit": "nM"}, {"measurement": "TGI", "setting": "SF-268 CNS", "result": 42.3, "unit": "nM"}, {"measurement": "GI50", "setting": "SF-295 CNS", "result": 103, "unit": "nM"}, {"measurement": "TGI", "setting": "SF-295 CNS", "result": 221, "unit": "nM"}, {"measurement": "GI50", "setting": "SF-539 CNS", "result": 33.9, "unit": "nM"}, {"measurement": "TGI", "setting": "SF-539 CNS", "result": 114, "unit": "nM"}, {"measurement": "GI50", "setting": "SK-MEL-2 melanoma", "result": 51.7, "unit": "nM"}, {"measurement": "TGI", "setting": "SK-MEL-2 melanoma", "result": 185, "unit": "nM"}, {"measurement": "GI50", "setting": "SK-MEL-28 melanoma", "result": 1450, "unit": "nM"}, {"measurement": "TGI", "setting": "SK-MEL-28 melanoma", "result": 2830, "unit": "nM"}, {"measurement": "GI50", "setting": "SK-MEL-5 melanoma", "result": 479, "unit": "nM"}, {"measurement": "TGI", "setting": "SK-MEL-5 melanoma", "result": 1760, "unit": "nM"}, {"measurement": "GI50", "setting": "SK-OV-3 ovarian", "result": 158, "unit": "nM"}, {"measurement": "TGI", "setting": "SK-OV-3 ovarian", "result": 299, "unit": "nM"}, {"measurement": "GI50", "setting": "SN12C renal", "result": 466, "unit": "nM"}, {"measurement": "TGI", "setting": "SN12C renal", "result": 1830, "unit": "nM"}, {"measurement": "GI50", "setting": "SNB-19 CNS", "result": 1300, "unit": "nM"}, {"measurement": "TGI", "setting": "SNB-19 CNS", "result": 2590, "unit": "nM"}, {"measurement": "GI50", "setting": "SNB-75 CNS", "result": 18.5, "unit": "nM"}, {"measurement": "TGI", "setting": "SNB-75 CNS", "result": 41.4, "unit": "nM"}, {"measurement": "GI50", "setting": "SR leukemia", "result": "< 10", "unit": "nM"}, {"measurement": "TGI", "setting": "SR leukemia", "result": 20.5, "unit": "nM"}, {"measurement": "GI50", "setting": "SW-620 colon", "result": 199, "unit": "nM"}, {"measurement": "TGI", "setting": "SW-620 colon", "result": 504, "unit": "nM"}, {"measurement": "GI50", "setting": "T-47D breast", "result": 58.2, "unit": "nM"}, {"measurement": "TGI", "setting": "T-47D breast", "result": 764, "unit": "nM"}, {"measurement": "GI50", "setting": "TK-10 renal", "result": 15.8, "unit": "nM"}, {"measurement": "TGI", "setting": "TK-10 renal", "result": 33.6, "unit": "nM"}, {"measurement": "GI50", "setting": "U251 glioblastoma", "result": 119, "unit": "nM"}, {"measurement": "TGI", "setting": "U251 glioblastoma", "result": 399, "unit": "nM"}, {"measurement": "GI50", "setting": "UACC-257 melanoma", "result": 86.8, "unit": "nM"}, {"measurement": "TGI", "setting": "UACC-257 melanoma", "result": 336, "unit": "nM"}, {"measurement": "GI50", "setting": "UACC-62 melanoma", "result": 19.3, "unit": "nM"}, {"measurement": "TGI", "setting": "UACC-62 melanoma", "result": 41.6, "unit": "nM"}, {"measurement": "GI50", "setting": "UO-31 renal", "result": "< 10", "unit": "nM"}, {"measurement": "TGI", "setting": "UO-31 renal", "result": "< 10", "unit": "nM"}]}]}
